Source: PubChem BioAssay AID328 (DTP/NCI, 2004)
Where “and” joins values, the source holds several entries; their conditions need not be identical. Equal values may be shown once. Inconclusive results and toxic doses are left out. How the source made its calls: active means survival T/C of 150% or more; inactive means T/C below 125% in these data.

System: BDF1 mice, P388 leukemia ip, median survival T/C
Experiment: NCI In Vivo Anticancer Drug Screen. Data for tumor model P388 Leukemia (intraperitoneal) in B6D2F1 (BDF1) mice
Details: endpoint: median survival time, higher = longer survival
Outline: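 Reported as T/C, where T is the survival measurement in dosed animals and C the same measurement in vehicle controls.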

[1] = dose: 100.0 mg/kg/injection, schedule: Q01DX009 (ip), vehicle: saline with Tween-80
[2] = dose: 100.0 mg/kg/injection, schedule: Q04DX003 (ip), vehicle: saline with Tween-80
[3] = dose: 400.0 mg/kg/injection, schedule: Q04DX003 (ip), vehicle: saline with Tween-80
[4] = dose: 100.0 mg/kg/injection, schedule: Q01DX001 (ip), vehicle: saline sonified
[5] = dose: 200.0 mg/kg/injection, schedule: Q01DX001 (ip), vehicle: saline sonified
[6] = dose: 6.25 mg/kg/injection, schedule: Q01DX009 (ip), vehicle: saline with Tween-80
[7] = dose: 12.5 mg/kg/injection, schedule: Q01DX009 (ip), vehicle: saline with Tween-80
[8] = dose: 25.0 mg/kg/injection, schedule: Q01DX009 (ip), vehicle: saline with Tween-80
[9] = dose: 50.0 mg/kg/injection, schedule: Q01DX009 (ip), vehicle: saline with Tween-80
[10] = dose: 25.0 mg/kg/injection, schedule: Q04DX003 (ip), vehicle: saline
[11] = dose: 50.0 mg/kg/injection, schedule: Q01DX009 (ip), vehicle: saline
[12] = dose: 100.0 mg/kg/injection, schedule: Q01DX009 (ip), vehicle: saline
[13] = dose: 6.25 mg/kg/injection, schedule: Q01DX009 (ip), vehicle: saline
[14] = dose: 12.5 mg/kg/injection, schedule: Q01DX009 (ip), vehicle: saline
[15] = dose: 25.0 mg/kg/injection, schedule: Q01DX009 (ip), vehicle: saline

Measured: T/C

NC(C(=O)O)C(O)c1ccc2c(c1)OCO2 (configuration not stated)
inactive: [1] 95 % of control | dose: 200.0 mg/kg/injection, schedule: Q01DX009 (ip), vehicle: saline with Tween-80 105 % of control | dose: 400.0 mg/kg/injection, schedule: Q01DX009 (ip), vehicle: saline with Tween-80 95 % of control

COC1=C(OC)C(=O)C(C/C=C(\C)CC/C=C(\C)CC/C=C(\C)CC/C=C(\C)CC/C=C(\C)CC/C=C(\C)CC/C=C(\C)CC/C=C(\C)CCC=C(C)C)=C(C)C1=O
inactive: dose: 5.0 mg/kg/injection, schedule: Q01DX025 (ip), vehicle: saline with Tween-80 109 % of control | dose: 10.0 mg/kg/injection, schedule: Q01DX025 (ip), vehicle: saline with Tween-80 106 % of control | dose: 20.0 mg/kg/injection, schedule: Q01DX025 (ip), vehicle: saline with Tween-80 104 % of control | dose: 40.0 mg/kg/injection, schedule: Q01DX025 (ip), vehicle: saline with Tween-80 98 % of control

CC[C@H](/C=C/[C@@H](C)[C@H]1CC[C@H]2[C@@H]3CC=C4C[C@@H](OC(=O)/C=C\C(=O)O)CC[C@]4(C)[C@H]3CC[C@]12C)C(C)C
inactive: dose: 6.25 mg/kg/injection, schedule: Q01DX009 (ip), vehicle: other 120 % of control | dose: 12.5 mg/kg/injection, schedule: Q01DX009 (ip), vehicle: other 105 % of control | dose: 18.75 mg/kg/injection, schedule: Q04DX003 (ip), vehicle: other 100 % of control | dose: 25.0 mg/kg/injection, schedule: Q01DX009 (ip), vehicle: other 100 % of control | dose: 37.5 mg/kg/injection, schedule: Q04DX003 (ip), vehicle: other 95 % of control | dose: 75.0 mg/kg/injection, schedule: Q04DX003 (ip), vehicle: other 104 % of control

S=c1nc(COc2ccccc2Cl)[nH][nH]1
inactive: [2] 100 % of control | dose: 200.0 mg/kg/injection, schedule: Q04DX003 (ip), vehicle: saline with Tween-80 109 % of control | [3] 104 % of control

NC=NC(CCC(=O)O)C(=O)O (configuration not stated)
inactive: dose: 12.5 mg/kg/injection, schedule: Q01DX005 (ip), vehicle: saline 90 % of control | dose: 25.0 mg/kg/injection, schedule: Q01DX005 (ip), vehicle: saline 96 % of control | dose: 50.0 mg/kg/injection, schedule: Q01DX005 (ip), vehicle: saline 91 % of control

N/N=C(/C=C/C(=O)O)c1ccccc1
inactive: [4] 100 % of control | [5] 109 % of control | dose: 400.0 mg/kg/injection, schedule: Q01DX001 (ip), vehicle: saline sonified 100 % of control

Cn1ncc2c(NCc3ccc(Cl)cc3)ncnc21
inactive: [6] 97 % of control | [7] 101 % of control | [8] 93 % of control | [9] 97 % of control

CC([N+](=O)[O-])S(=O)(=O)c1ccc(Cl)cc1 (configuration not stated)
inactive: dose: 50.0 mg/kg/injection, schedule: Q01DX001 (ip), vehicle: saline sonified 95 % of control | [4] 100 % of control | [5] 100 % of control

COc1cc2cc[n+](C)cc2cc1OC
inactive: dose: 6.25 mg/kg/injection, schedule: Q04DX003 (ip), vehicle: water 94 % of control | dose: 12.5 mg/kg/injection, schedule: Q04DX003 (ip), vehicle: water 94 % of control | [10] 100 % of control | dose: 25.0 mg/kg/injection, schedule: Q04DX003 (ip), vehicle: water 107 % of control | [11] 100 % of control | dose: 50.0 mg/kg/injection, schedule: Q04DX003 (ip), vehicle: saline 86 % of control and 104 % of control | dose: 50.0 mg/kg/injection, schedule: Q04DX003 (ip), vehicle: water 111 % of control | [12] 100 % of control | dose: 100.0 mg/kg/injection, schedule: Q04DX003 (ip), vehicle: saline 88 % of control and 90 % of control and 113 % of control | dose: 100.0 mg/kg/injection, schedule: Q04DX003 (ip), vehicle: water 111 % of control

O=C(O)CN=Cc1ccccc1O.O=C(O)CN=Cc1ccccc1O.[Fe]
inactive: [6] 100 % of control | [13] 106 % of control | dose: 6.25 mg/kg/injection, schedule: Q04DX003 (ip), vehicle: saline 100 % of control | [7] 100 % of control | [14] 115 % of control | dose: 12.5 mg/kg/injection, schedule: Q04DX003 (ip), vehicle: saline 100 % of control | [8] 100 % of control and 110 % of control | [15] 90 % of control | dose: 25.0 mg/kg/injection, schedule: Q04DX003 (ip), vehicle: saline with Tween-80 100 % of control | [10] 95 % of control | [9] 100 % of control | [11] 86 % of control | dose: 50.0 mg/kg/injection, schedule: Q04DX003 (ip), vehicle: saline with Tween-80 86 % of control

CC12CCC(=O)C=C1CCC1C2CCC2(C)C(OP(=O)(N3CC3)N3CC3)CCC12 (configuration not stated)
inactive: [2] 110 % of control

c1ccc2c(c1)CC1CCCCN1C2 (configuration not stated)
inactive: dose: 12.5 mg/kg/injection, schedule: Q01DX009 (ip), vehicle: Klucel (hydroxypropylcellulose) (HPC) 100 % of control | [14] 100 % of control | dose: 25.0 mg/kg/injection, schedule: Q01DX009 (ip), vehicle: Klucel (hydroxypropylcellulose) (HPC) 105 % of control | [15] 90 % of control | dose: 37.5 mg/kg/injection, schedule: Q04DX003 (ip), vehicle: saline 95 % of control | dose: 50.0 mg/kg/injection, schedule: Q01DX009 (ip), vehicle: Klucel (hydroxypropylcellulose) (HPC) 100 % of control | [11] 110 % of control | dose: 75.0 mg/kg/injection, schedule: Q04DX003 (ip), vehicle: saline 86 % of control

OC12CCCC3CCCC(CCC1)C32 (configuration not stated)
inactive: dose: 100.0 mg/kg/injection, schedule: Q04DX003 (ip), vehicle: Klucel (hydroxypropylcellulose) (HPC) 100 % of control | dose: 200.0 mg/kg/injection, schedule: Q04DX003 (ip), vehicle: Klucel (hydroxypropylcellulose) (HPC) 100 % of control | dose: 400.0 mg/kg/injection, schedule: Q04DX003 (ip), vehicle: Klucel (hydroxypropylcellulose) (HPC) 100 % of control

CCOC(C[Se][Se]CC(OCC)OCC)OCC
inactive: dose: 1.56 mg/kg/injection, schedule: Q01DX009 (ip), vehicle: saline 99 % of control | dose: 3.13 mg/kg/injection, schedule: Q01DX009 (ip), vehicle: saline 102 % of control | [13] 102 % of control

COC(=O)CC1CCN(C(=O)OCc2ccccc2)C(Cc2c[nH]c3ccccc23)C1=O (configuration not stated)
inactive: dose: 2.0 mg/kg/injection, schedule: Q01DX009 (ip), vehicle: saline 105 % of control | dose: 3.0 mg/kg/injection, schedule: Q01DX009 (ip), vehicle: saline 109 % of control | dose: 4.0 mg/kg/injection, schedule: Q01DX009 (ip), vehicle: saline 114 % of control | dose: 8.0 mg/kg/injection, schedule: Q01DX009 (ip), vehicle: saline 98 % of control | dose: 10.0 mg/kg/injection, schedule: Q01DX009 (ip), vehicle: saline 109 % of control | dose: 16.0 mg/kg/injection, schedule: Q01DX009 (ip), vehicle: saline 102 % of control | dose: 30.0 mg/kg/injection, schedule: Q01DX009 (ip), vehicle: saline 104 % of control | dose: 32.0 mg/kg/injection, schedule: Q01DX009 (ip), vehicle: saline 95 % of control | dose: 60.0 mg/kg/injection, schedule: Q01DX009 (ip), vehicle: saline 109 % of control

ClCCn1cnc2c(SCc3ccccc3Cl)ncnc21
inactive: [8] 100 % of control | [9] 91 % of control | [1] 108 % of control | [2] 100 % of control | [3] 112 % of control

CCC1OC(=O)C(C)C(OC2CC(C)(O)C(O)C(C)O2)C(C)C(O)C(C)(O)CC(C)C(=O)C(C)C(O)C1C (configuration not stated)
inactive: [12] 100 % of control | dose: 200.0 mg/kg/injection, schedule: Q01DX009 (ip), vehicle: saline 94 % of control

C[C@]12CC[C@H]3[C@@H](CC[C@@H]4C[C@@H](O)CC[C@@]43C=O)[C@]13O[C@@H]3CC2c1ccc(=O)oc1 (some centres not stated)
inactive: dose: 0.25 mg/kg/injection, schedule: Q01DX009 (ip), vehicle: Klucel (hydroxypropylcellulose) (HPC) 100 % of control | dose: 0.5 mg/kg/injection, schedule: Q01DX009 (ip), vehicle: Klucel (hydroxypropylcellulose) (HPC) 98 % of control | dose: 1.0 mg/kg/injection, schedule: Q01DX009 (ip), vehicle: Klucel (hydroxypropylcellulose) (HPC) 98 % of control | dose: 2.0 mg/kg/injection, schedule: Q01DX009 (ip), vehicle: Klucel (hydroxypropylcellulose) (HPC) 100 % of control
